Data on 6 compounds can be found in patent US4818753A, “Synthesis and method of use for 2, 4 diaminoquinazoline” (SRI International, priority 1987, dated 1989).

Values after ≈ are worked out from the molar mass of the structure shown. Where two headings read alike, the source gives them in different places. Some results are limits rather than exact numbers.

What all share (assay type): cell-based
Assay [1] relates to Cryptococcus neoformans (13690). Kind of assay: Broth dilution assay, F3. As to the method: (§1) Both broth dilution and agar dilution assays were used to assess the antifungal activity of the compounds of the invention. The cultures were maintained in Sabouraud dextrose broth (SDB) and diluted with […]. 2.5 l of SDB was prepared and distributed into sterile vessels as follows: 49 ml into 1 vessel, 27 ml into 3 vessels, 45 ml into 2 vessels.
(§2) Five mg/ml concentration of each compound was prepared using DMSO as the solvent; warming and sonication were necessary to dissolve each compound completely. The compounds were then diluted in SDB according to the following protocol:
(§3) 5. 1 ug/ml--5 ml (3)+45 ml SDB
(§4) The compound at each concentration in SDB was then dispensed into 6 tubes each containing 4 ml […]. Controls (without any compound) were also prepared to insure that the solvent itself was not fungicidal or fungistatic.
(§5) Cultures were grown in SDB for 24 h at 30° C. C. albicans and C. neoformans were diluted 1:10 in SDB before inoculation. Inoculation volume for yeasts was 2 drops of diluted cells per tube. The fungal cultures were homogenized before inoculation. The same volume was added, but without dilution. All tubes were incubated at room temperature on a rotating wheel. After 16 h of incubation at room temperature, the fungistatic assay was set up on agar plates. […] Yeasts were inoculated onto SDA (the corresponding agar) plates and fungi onto mycosel agar plates. These plates were then incubated at room temperature.
For orientation: Dilution methods test growth across graded concentrations, often in twofold steps.

The test system of the next assay is Candida albicans (14053). Kind of assay: Broth dilution assay, F2. As to conditions: for MIC: Table 1, F2, Sabouraud Dextrose Broth pH 5.5, read-out: Minimum Inhibitory Concentration (S, fungistatic); for MFC: Table 1, F2, Sabouraud Dextrose Broth pH 5.5, read-out: Minimum Lethal Concentration (C, fungicidal). As to the method:
as §1, §2, §3, §4, §5

A further assay concerns Candida albicans (10231). Kind of assay: Broth dilution assay, F1. As to the method: as §1, §2, §3, §4, §5
The subject of assay [2] is Trichophyton mentagrophytes (11481). Kind of assay: Broth dilution assay, F6. As to the method:
as §1, §2, §3, §4, §5

In assay [3] the test system is Penicillium citrinum (9849). Kind of assay: Broth dilution assay, F19. As to conditions: for MIC: Table 1, F19, Sabouraud Dextrose Broth pH 5.5, read-out: Minimum Inhibitory Concentration (S, fungistatic); for MFC: Table 1, F19, Sabouraud Dextrose Broth pH 5.5, read-out: Minimum Lethal Concentration (C, fungicidal). As to the method: as §1, §2, §3, §4, §5
Assay [4] deals with Microsporum gypseum (14683). Kind of assay: Broth dilution assay, F12. As to conditions: Nannizzia gypsea. As to the method:
as §1, §2, §3, §4, §5

For assay [5], the system named is Epidermophyton floccosum (15693). Kind of assay: Broth dilution assay, F4. As to the method:
as §1, §2, §3, §4, §5

[6] abbreviates: Table 1, F3, Sabouraud Dextrose Broth pH 5.5, read-out: Minimum Inhibitory Concentration (S, fungistatic).
The mark [7] stands for this setting: Table 1, F3, Sabouraud Dextrose Broth pH 5.5, read-out: Minimum Lethal Concentration (C, fungicidal).
The mark [8] stands for this setting: Table 1, F1, Sabouraud Dextrose Broth pH 5.5, read-out: Minimum Inhibitory Concentration (S, fungistatic).
[9] abbreviates: Table 1, F1, Sabouraud Dextrose Broth pH 5.5, read-out: Minimum Lethal Concentration (C, fungicidal).
Setting [10] is: Table 1, F6, Sabouraud Dextrose Broth pH 5.5, read-out: Minimum Inhibitory Concentration (S, fungistatic).
[11] abbreviates: Table 1, F6, Sabouraud Dextrose Broth pH 5.5, read-out: Minimum Lethal Concentration (C, fungicidal).
[12] abbreviates: Table 1, Sabouraud Dextrose Broth pH 5.5, read-out: Minimum Inhibitory Concentration (S, fungistatic).
The mark [13] stands for this setting: Table 1, Sabouraud Dextrose Broth pH 5.5, read-out: Minimum Lethal Concentration (C, fungicidal).
The mark [14] stands for this setting: Table 1, F4, Sabouraud Dextrose Broth pH 5.5, read-out: Minimum Inhibitory Concentration (S, fungistatic).
Setting [15] is: Table 1, F4, Sabouraud Dextrose Broth pH 5.5, read-out: Minimum Lethal Concentration (C, fungicidal).
Setting [16] is: Table 2, F3, Sabouraud Dextrose Broth pH 5.5, read-out: C Fungicidal.
The mark [17] stands for this setting: Table 2, F3, Sabouraud Dextrose Broth pH 5.5, read-out: S Fungistatic.
The mark [18] stands for this setting: Table 2, F1, Sabouraud Dextrose Broth pH 5.5, read-out: C Fungicidal.
The mark [19] stands for this setting: Table 2, F1, Sabouraud Dextrose Broth pH 5.5, read-out: S Fungistatic.
The mark [20] stands for this setting: Table 2, F6, Sabouraud Dextrose Broth pH 5.5, read-out: C Fungicidal.
The mark [21] stands for this setting: Table 2, F6, Sabouraud Dextrose Broth pH 5.5, read-out: S Fungistatic.
[22] abbreviates: Table 2, Sabouraud Dextrose Broth pH 5.5, read-out: C Fungicidal.
The mark [23] stands for this setting: Table 2, Sabouraud Dextrose Broth pH 5.5, read-out: S Fungistatic.
The mark [24] stands for this setting: Table 2, F4, Sabouraud Dextrose Broth pH 5.5, read-out: C Fungicidal.
Setting [25] is: Table 2, F4, Sabouraud Dextrose Broth pH 5.5, read-out: S Fungistatic.

Regarding `Cc1c(CCC(C)C)ccc2nc(N)nc(N)c12` [--CH2 CH2 CH(CH3)2], the MIC is 10 µg/mL (≈ 40.9 µM) in assay [1] (setting [6]); 100 µg/mL (≈ 409 µM) in the assay on Candida albicans (14053); 100 µg/mL (≈ 409 µM) with Candida albicans (10231) (setting [8]); over 30 µg/mL in assay [2] (setting [10]); 100 µg/mL (≈ 409 µM) in assay [3]; 30 µg/mL (≈ 123 µM) in assay [4] (setting [12]). The MIC in assay [5] (setting [14]) amounted to 10 µg/mL (≈ 40.9 µM). The MFC was 30 µg/mL (≈ 123 µM) in assay [1] (setting [7]); 100 µg/mL (≈ 409 µM) in the assay on Candida albicans (14053); 100 µg/mL (≈ 409 µM) in the assay on Candida albicans (10231) (setting [9]); over 30 µg/mL in assay [2] (setting [11]); over 100 µg/mL in assay [3]; over 30 µg/mL in assay [4] (setting [13]). For the same compound, in assay [5] (setting [15]), the MFC was 10 µg/mL (≈ 40.9 µM).

For the compound `CCCc1ccc2nc(N)nc(N)c2c1C` [--CH2 CH2 CH3], the MIC in assay [1] (setting [6]) is over 100 µg/mL; with Candida albicans (14053), over 100 µg/mL; in the assay with Candida albicans (10231) (setting [8]), over 100 µg/mL; in assay [2] (setting [10]), over 30 µg/mL; in assay [3], over 100 µg/mL; in assay [4] (setting [12]) it was over 30 µg/mL. Besides, in assay [5] (setting [14]), the MIC was determined as 30 µg/mL (≈ 139 µM). For the same compound, the MFC is over 100 µg/mL in assay [1] (setting [7]); over 100 µg/mL with Candida albicans (14053); over 100 µg/mL in the assay with Candida albicans (10231) (setting [9]); over 30 µg/mL in assay [2] (setting [11]); over 100 µg/mL in assay [3]; over 30 µg/mL in assay [4] (setting [13]). For the same compound, in assay [5] (setting [15]), the MFC was over 30 µg/mL.

Turning to `CCCCCCCCCCc1ccc2nc(N)nc(N)c2c1C` [R^1 = CH3 R^2 = --CH2 (CH2)8 CH3, 2,4-Diamino-5-methyl-6-n-decylquinazoline], the MFC in assay [1] (setting [16]) is 30 µg/mL (≈ 95.4 µM); in the assay with Candida albicans (10231) (setting [18]) it was over 100 µg/mL; in assay [2] (setting [20]), 30 µg/mL (≈ 95.4 µM); in assay [4] (setting [22]), over 100 µg/mL. Moreover, the MIC was 3 µg/mL (≈ 9.54 µM) in assay [1] (setting [17]), 30 µg/mL (≈ 95.4 µM) with Candida albicans (10231) (setting [19]), over 100 µg/mL in assay [2] (setting [21]) and 100 µg/mL (≈ 318 µM) in assay [4] (setting [23]).

Take `CCCCCCCCCc1ccc2nc(N)nc(N)c2c1` [R^1 = H R^2 = CH2 (CH2)7 CH3]: the MFC in assay [1] (setting [16]) was over 30 µg/mL; in the assay with Candida albicans (10231) (setting [18]), over 100 µg/mL; in assay [2] (setting [20]) it was over 100 µg/mL; in assay [4] (setting [22]) it was over 100 µg/mL; in assay [5] (setting [24]) it was at most 0.3 µg/mL. Further, the MIC in assay [1] (setting [17]) was 3 µg/mL (≈ 10.5 µM); in the assay with Candida albicans (10231) (setting [19]) it was 100 µg/mL (≈ 349 µM); in assay [2] (setting [21]), over 100 µg/mL; in assay [4] (setting [23]), 100 µg/mL (≈ 349 µM); in assay [5] (setting [25]), 30 µg/mL (≈ 105 µM).

In the case of `CCCCCCCc1ccc2nc(N)nc(N)c2c1C` [R^1 = CH3 R^2 = --CH2 (CH2)5 CH3, 2,4-Diamino-5-methyl-6-n-heptylquinazoline], the MFC in assay [1] (setting [16]) is 10 µg/mL (≈ 36.7 µM); in the assay with Candida albicans (10231) (setting [18]) it was over 100 µg/mL; in assay [2] (setting [20]), 30 µg/mL (≈ 110 µM); in assay [4] (setting [22]), 100 µg/mL (≈ 367 µM); in assay [5] (setting [24]) it was 30 µg/mL (≈ 110 µM). Moreover, the MIC in assay [1] (setting [17]) came to 3 µg/mL (≈ 11 µM); with Candida albicans (10231) (setting [19]), 30 µg/mL (≈ 110 µM); in assay [2] (setting [21]), 30 µg/mL (≈ 110 µM); in assay [4] (setting [23]) it was 30 µg/mL (≈ 110 µM); in assay [5] (setting [25]) it was 10 µg/mL (≈ 36.7 µM).

As for `Cc1c(CCc2ccccc2)ccc2nc(N)nc(N)c12` [R^1 = CH3 R^2 = --CH2 (CH2)C6 H5, 2,4-Diamino-5-methyl-6-phenethylquinazline], the MFC in assay [1] (setting [16]) was 30 µg/mL (≈ 108 µM); in the assay with Candida albicans (10231) (setting [18]) it was over 100 µg/mL; in assay [2] (setting [20]), 30 µg/mL (≈ 108 µM); in assay [4] (setting [22]), over 100 µg/mL; in assay [5] (setting [24]) it was 100 µg/mL (≈ 359 µM). The MIC amounted to 10 µg/mL (≈ 35.9 µM) in assay [1] (setting [17]); 100 µg/mL (≈ 359 µM) with Candida albicans (10231) (setting [19]); 30 µg/mL (≈ 108 µM) in assay [2] (setting [21]); 100 µg/mL (≈ 359 µM) in assay [4] (setting [23]); 30 µg/mL (≈ 108 µM) in assay [5] (setting [25]).
